Key:
[1] = molecular target: T1, FLAG-tagged Vanin-1 (AA 22-493, T26I) (Homo sapiens, UniProt O95497, T26I); experiment: Vanin-1 enzymatic assay (pantothenic acid formation, RapidFire mass spectrometry); format: biochemical; details: 0.1 nM FLAG-tagged Vanin-1, 3 μM D-pantethine, room temperature; geometric mean in case of multiple measurements; read-out: VNN-1 IC50
T1 construct: FLAG-tagged Vanin-1 (AA 22-493, T26I, produced internally); FLAG; made in house
T1 sequence (O95497 22-493 T26I): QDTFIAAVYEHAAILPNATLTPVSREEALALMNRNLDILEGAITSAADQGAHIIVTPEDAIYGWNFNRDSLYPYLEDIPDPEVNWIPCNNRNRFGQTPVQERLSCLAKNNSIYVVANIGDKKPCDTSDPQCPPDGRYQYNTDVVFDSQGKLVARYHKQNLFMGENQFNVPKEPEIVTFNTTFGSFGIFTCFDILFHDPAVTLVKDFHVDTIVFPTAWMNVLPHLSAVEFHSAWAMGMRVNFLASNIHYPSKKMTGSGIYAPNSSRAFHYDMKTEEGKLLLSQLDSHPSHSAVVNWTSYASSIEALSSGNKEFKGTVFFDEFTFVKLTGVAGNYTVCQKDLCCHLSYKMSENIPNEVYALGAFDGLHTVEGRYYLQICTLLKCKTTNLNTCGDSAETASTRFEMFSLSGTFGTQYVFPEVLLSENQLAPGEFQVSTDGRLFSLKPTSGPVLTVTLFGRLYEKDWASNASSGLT
Method: Description of Biological Properties Vanin-1 Enzymatic Assay:
The test compounds are dissolved in 100% DMSO at a concentration of 10 mM and in a first step diluted in DMSO to a concentration of 5 mM, followed by serial dilution steps in 100% DMSO. Dilution factor and number of dilution steps may vary according to needs. Typically 8 different concentrations by 1:5 dilutions are prepared, a further intermediate dilutions of the substances is carried out with assay buffer resulting in 1% final DMSO concentration in the assay.
0.1 nM of FLAG-tagged Vanin-1 (AA 22-493, T26I, produced internally) and test compounds are incubated at room temperature for 20 minutes in assay buffer (1 mM DTT, 0.0025% Brij-35, 50 mM HEPES, pH7.5). D-Pantethine (Sigma, Cat #P2125-5G) in assay buffer is added (final concentration 3 μM) and incubated for additional 30 minutes at room temperature. Total assay volume typically is 40 μl but might be adjusted according to needs. Reaction is stopped by adding equal volume of stop solution as the reaction mixture to reach 100 nM HD-pantothenic acid (as an internal standard) and 1% TFA. Assay plates are centrifuged for 2 minutes and the formation of pantothenic acid is detected by RapidFire Mass Spectrometry (mobile phase A: 0.1% formic acid and 0.01% trifluoroacetic acid in water; mobile phase B: 47.5% acetonitrile, 47.5% methanol, 0.1% formic acid and 0.01% trifluoroacetic acid in water) using a C18, 12 μL cartridge (Agilent Cat #G9205A).
The values given in Table I result from measurements of one or more samples. In case of multiple measurements the geometric mean values are given.

[2] = test system: Pantetheinase (vanin); experiment: Human Whole Blood assay (vanin activity by pantothenic acid formation); format: cell-based; details: pantethine substrate, 5 min reaction at room temperature, geometric mean in case of multiple measurements, read-out: HWB IC50
Method: Human Whole Blood assay: Pantetheinase (vanin) converts panteheine into pantothenic acid and cysteamine. Accordingly, in the described protocol vanin activity is quantified by formation of pantothenic acid after pantetheine supplementation via pantethine. The assay is applicable to identify vanin inhibitors. Compound stocks are dissolved in DMSO at 10 mM. Further dilutions are performed in RPMI 1640 medium (Gibco, #A-10491-01) and final concentrations in the assay are 0.032 nM-500 nM.
Human blood is drawn into a blood bag (1% heparin, 50 I.E./mL). Blood is aliquoted into cavities of 96-deep-well plates at 290 μL and mixed with 10 μL compound solution or vehicle (30 sec at 1400 rpm on a shaker). Equilibration follows at room temperature, 250 rpm and for 30 min. The assay is started by adding 10 μL of substrate solution (2 μM pantethine in 1 mM DTT, 0.0025% Brij-35, 50 mM HEPES, pH7.5) to each well, except for some blank wells which receive […] substrate buffer (1 mM DTT, 0.0025% Brij-35, 50 mM HEPES, pH7.5) only. Samples are thoroughly shaken (30 sec, 1400 rpm) and reaction is allowed to take place at room temperature, 250 rpm and for 5 min. The reaction is stopped by addition of a vanin tool inhibitor in excess (BI-1 total conc. 10 μM). Centrifugation of the plate follows at 4° C., 665 G for 10 min. Then the blood plasma samples (100 μL) are transferred into another 96-deep-well plate and proteins are precipitated (5 min on ice) by adding 100 μL of ice cold precipitation solution (1 μM labelled pantothenic acid (di-β-alanine-13C6,15N2 calcium salt, Sigma, #705837) in acetonitrile).
Afterwards the plate is centrifuged (4° C., 3220 G, 10 min) and supernatants (50 μL) are collected into another 96-deep-well plate and mixed (10 sec, 1400 rpm) with 150 μL ice cold formic acid (0.1%, Carl Roth GmbH+Co.KG, #CP03.1). The formation of pantothenic acid is detected by RapidFire Mass Spectrometry. A TripleQuad 6500+(ABSciex, Germany) is equipped with an LC-1290 system, a RapidFire autosampler (Agilent, Germany) and a C18 cartridge Type C 12 μL (Agilent Cat #G9526-80000). Mobile phase A is consisting of 0.09% formic acid and 0.01% trifluoroacetic acid in water and mobile phase B of 0.09% formic acid and 0.01% trifluoroacetic acid in acetonitrile/methanol/water=47.5/47.5/5.

Row | SMILES | IC50 [1] [nM] | IC50 [2] [nM]
1 | CC(=O)N(C)[C@H]1CCN(C(=O)c2ccc(NCc3cnn4cccnc34)nc2)C1 [Example 5.29] | 2.74 | 
2 | CC(=O)N(C)[C@H]1CCN(C(=O)c2ccc(NCc3csc4ccccc34)nc2)C1 [Example 3.1, N-[(3S)-1-(6-{1[(1-Benzothiophen-3-yl)methyl]amino}pyridine-3-carbonyl)pyrrolidin-3-yl]-N-methylacetamide] | 0.41 | 7.21
3 | CC(=O)N(C)[C@H]1CCN(C(=O)c2ccc(NCc3ccc4onc(N)c4c3)nc2)C1 [Example 5.34] | 9.43 | 
4 | CC(=O)N(C)[C@H]1CCN(C(=O)c2ccc(NCc3ccc4[nH]ccc4c3)nc2)C1 [Example 5.17] | 0.64 | 
5 | CC1(C#N)CCN(C(=O)c2ccc(NCc3cnc4ccccn34)nc2)C1 (centres unmarked) [Example 1.18] | 0.41 | 3.67
6 | CC(=O)N(C)[C@H]1CCN(C(=O)c2ccc(NCc3ccnc4[nH]ccc34)nc2)C1 [Example 5.13] | 0.28 | 1.71
7 | CC(=O)N(C)[C@H]1CCN(C(=O)c2ccc(NCc3c[nH]c4ccccc34)nc2)C1 [Example 5.16] | 0.62 | 4.39
8 | CC1(C#N)CCN(C(=O)c2ccc(NCc3csc4ccccc34)nc2)C1 (centres unmarked) [Example 9.2] | 1.14 | 
9 | CC(=O)N(C)[C@H]1CCN(C(=O)c2ccc(NCc3cc4ccccc4[nH]3)nc2)C1 [Example 5.33] | 9.33 | 
10 | CC(=O)N(C)[C@H]1CCN(C(=O)c2ccc(NCc3cc4ccccc4s3)nc2)C1 [Example 2.6] | 2.05 | 
11 | CN(C(=O)C1CC1)[C@H]1CCN(C(=O)c2ccc(NCc3csc4ccccc34)nc2)C1 [Example 5.39] | 0.29 | 26.2
12 | CC(=O)N(C)[C@H]1CCN(C(=O)c2ccc(N[C@@H](C)c3ccc4nn(C)cc4c3)nc2)C1 [Example 5.38] | 0.36 | 1.37
13 | CC(=O)N(C)[C@H]1CCN(C(=O)c2ccc(NCc3ccc4[nH]ncc4c3)nc2)C1 [Example 5.22] | 0.82 | 3.35
14 | CC(=O)N(C)[C@H]1CCN(C(=O)c2ccc(NCc3ccc4ncccc4c3)nc2)C1 [Example 5.26] | 1.62 | 
15 | CC(=O)N(C)[C@H]1CCN(C(=O)c2ccc(NCc3ccc4nc(N)[nH]c4c3)nc2)C1 [Example 5.18] | 0.69 | 
16 | CC(=O)N(C)[C@H]1CCN(C(=O)c2ccc(NCc3nc4ccccc4s3)nc2)C1 [Example 5.31] | 4.62 | 
17 | CC(=O)N(C)[C@H]1CCN(C(=O)c2ccc(NCc3cccc4cccnc34)nc2)C1 [Example 5.30] | 3.02 | 
18 | CC(=O)N(C)[C@H]1CCN(C(=O)c2ccc(N[C@H](C)c3cccc4c3cnn4C)nc2)C1 [Example 5.25] | 1.43 | 
19 | CC(=O)N(C)[C@H]1CCN(C(=O)c2ccc(NCc3n[nH]c4c3CCCC4)nc2)C1 [Example 5.28] | 2.65 | 
20 | CC(=O)N(C)[C@H]1CCN(C(=O)c2ccc(N[C@H](C)c3cccc4nn(C)cc34)nc2)C1 [Example 5.27] | 2.25 | 
21 | CC(=O)N(C)[C@H]1CCN(C(=O)c2ccc(N[C@H](C)c3ccc4c(cnn4C)c3)nc2)C1 [Example 5.32] | 9.06 | 
22 | CC(=O)N(C)[C@H]1CCN(C(=O)c2ccc(N[C@@H](C)c3nc4cc(Cl)c(F)cc4[nH]3)nc2)C1 [Example 5.20] | 0.76 | 
23 | CC(=O)N(C)[C@H]1CCN(C(=O)c2ccc(NCc3cccc4c3ccn4C)nc2)C1 [Example 2.5] | 0.67 | 

Stronger by IC50 [1], values ahead:

Row | IC50 [1] [nM] | IC50 [2] [nM] | SMILES
24 | 0.21 |  | CC(=O)N(C)[C@H]1CCN(C(=O)c2ccc(NCc3csc4ccc(Cl)cc34)nc2)C1 [Example 2.3]
25 | 0.1 | 1.48 | CN(C(=O)C1CC(F)(F)C1)[C@H]1CCN(C(=O)c2ccc(NCc3cnc4ccccn34)nc2)C1 [Example 1.12]
26 | 0.21 |  | CC(=O)N(C)[C@H]1CCN(C(=O)c2ccc(NCc3cnc4ccccc4c3)nc2)C1 [Example 5.11]
27 | 0.13 |  | CC(=O)N(C)[C@H]1CCN(C(=O)c2ccc(NCc3cc(Br)cc4[nH]ncc34)nc2)C1 [Example 5.5]
28 | 0.12 | 6.38 | C[C@H](Nc1ccc(C(=O)N2CC[C@H](N(C)C(=O)C3CC(F)(F)C3)C2)cn1)c1cnc2[nH]ccc2c1 [Example 1.6]
29 | 0.16 | 2.78 | C[C@H](Nc1ccc(C(=O)N2CC[C@H](N(C)C(=O)C3CC(F)(F)C3)C2)cn1)c1cnc2[nH]ccc2c1 [Example 1.10]
30 | 0.14 |  | CC(=O)N(C)[C@H]1CCN(C(=O)c2ccc(NCc3cc(C)cc4[nH]ncc34)nc2)C1 [Example 6.1, N-Methyl-N-[(3S)-1-(6-{[(6-methyl-1H-indazol-4-yl)methyl]amino}pyridine-3-carbonyl)pyrrolidin-3-yl]acetamide]
31 | 0.18 | 10.3 | CC(=O)N(C)[C@H]1CCN(C(=O)c2ccc(N[C@@H](C)c3cnc4[nH]ccc4c3)nc2)C1 [Example 5.9]
32 | 0.14 | 4.49 | CC(=O)N(C)[C@H]1CCN(C(=O)c2ccc(NCc3ccc4nc[nH]c4c3)nc2)C1 [Example 5.7]
33 | 0.18 | 1.41 | CC(=O)N(C)[C@H]1CCN(C(=O)c2ccc(NC(C)c3cccc4[nH]ccc34)nc2)C1 (some centres unmarked) [Example 5.10]
34 | 0.2 |  | C[C@H](Nc1ccc(C(=O)N2CC[C@H](N(C)C(=O)C3(C)CCC3)C2)cn1)c1cnc2[nH]ccc2c1 [Example 1.11]
35 | 0.24 |  | CC(=O)N(C)[C@H]1CCN(C(=O)c2ccc(N[C@@H](C)c3ccc4c(cnn4C)c3)nc2)C1 [Example 5.37]
36 | 0.14 |  | CC(=O)N(C)[C@H]1CCN(C(=O)c2ccc(N[C@@H](C)c3cccc4ccccc34)nc2)C1 [Example 2.2]
37 | 0.2 |  | O=C(c1ccc(NCc2csc3ccccc23)nc1)N1CC[C@H](N2CCOC2=O)C1 [Example 8.1, 3-[(3S)-1-(6-{[(1-Benzothiophen-3-yl)methyl]amino}pyridine-3-carbonyl)pyrrolidin-3-yl]-13-oxazolidin-2-one]
38 | 0.14 |  | C[C@H](Nc1ccc(C(=O)N2CC[C@H](N(C)C(=O)C3(C)CCC3)C2)cn1)c1cnc2[nH]ccc2c1 [Example 1.8]
39 | 0.26 |  | CN(C(=O)C1CCC1)[C@H]1CCN(C(=O)c2ccc(NCc3csc4ccccc34)nc2)C1 [Example 9.1, N-[(3S)-1-(6-{[(1-Benzothiophen-3-yl)methyl]amino}pyridine-3-carbonyl)pyrrolidin-3-yl]-N-methylcyclobutanecarboxamide]
40 | 0.21 |  | O=C(c1ccc(NCc2csc3ccccc23)nc1)N1CC[C@H](N2CCCC2=O)C1 [Example 8.2]

— patent US12358910B2, “Heteroaromatic compounds as Vanin inhibitors” (Boehringer Ingelheim International GmbH, priority 2018, dated 2025)
